Publication PMC4978996 (Scientific Reports, 2016)
pIC50: −log10 of the molar value. “And” between values parts separate entries of the source, which are not always exact repeats. Identical values can stand only once.

Tests used:
ChAT = test system: ChAT; design: method as in literature; conditions: ChAT inhibition, experimentally determined value taken from literature; ref literature; cited from earlier work
BuChE = target: T1, BuChE (Homo sapiens, UniProt P06276); test: biochemical
T1 construct: a 1:400 diluted solution of a pooled human plasma sample was used; from tissue; host or cells: pooled human plasma
T1 sequence (P06276 29-602): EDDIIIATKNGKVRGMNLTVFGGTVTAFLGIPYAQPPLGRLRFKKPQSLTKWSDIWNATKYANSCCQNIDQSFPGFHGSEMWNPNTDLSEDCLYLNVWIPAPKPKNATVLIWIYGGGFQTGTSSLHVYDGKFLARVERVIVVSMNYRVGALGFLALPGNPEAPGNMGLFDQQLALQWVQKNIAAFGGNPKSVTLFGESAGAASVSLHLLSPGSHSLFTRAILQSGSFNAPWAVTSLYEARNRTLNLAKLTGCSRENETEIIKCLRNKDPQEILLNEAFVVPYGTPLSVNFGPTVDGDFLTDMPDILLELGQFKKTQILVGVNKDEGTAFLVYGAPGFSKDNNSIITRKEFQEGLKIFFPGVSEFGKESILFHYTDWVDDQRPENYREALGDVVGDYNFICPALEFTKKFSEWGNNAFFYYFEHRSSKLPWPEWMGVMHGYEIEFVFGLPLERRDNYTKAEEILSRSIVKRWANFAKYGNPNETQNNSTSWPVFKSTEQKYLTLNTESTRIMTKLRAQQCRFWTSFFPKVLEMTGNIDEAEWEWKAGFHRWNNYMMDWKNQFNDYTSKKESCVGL
Procedure: (§1) A modified version of Ellman’s colorimetric assay was used for the enzymatic activity of BuChE and AChE, as described previously. For BuChE activity, 50 μL/well of a 1:400 diluted solution of a pooled human plasma sample was used. For AChE activity, the 1:400 diluted pooled human plasma samples had been supplied with 50 ng/ml of purified AChE protein (Sigma). These were preincubated with 50 μL/wells of different concentrations of α-NETA for 30 minutes at room temperature. Then, 100 μL of a cocktail (Na/K phosphate buffer, containing 5,5′-dithiobis(2-nitrobenzoic acid) (DTNB, final concentration 0.4 mM) and butyrylthiocholine iodide (Sigma, final concentration 5 mM) or acetylthiocholine iodide (Sigma, final concentration 0.5 mM) were added and the changes in absorbance was monitored at one minutes intervals at 412 nm wavelength. For the AChE activity, the cocktail also contained the selective BuChE inhibitor ethopropazine (Sigma, final concentration 0.1 mM).

AChE = target: T2, AChE (Homo sapiens, UniProt P22303); test: Modified Ellman's colorimetric assay, AChE activity; assay type: biochemical
T2 construct: purchased Sigma
T2 sequence (P22303 32-614): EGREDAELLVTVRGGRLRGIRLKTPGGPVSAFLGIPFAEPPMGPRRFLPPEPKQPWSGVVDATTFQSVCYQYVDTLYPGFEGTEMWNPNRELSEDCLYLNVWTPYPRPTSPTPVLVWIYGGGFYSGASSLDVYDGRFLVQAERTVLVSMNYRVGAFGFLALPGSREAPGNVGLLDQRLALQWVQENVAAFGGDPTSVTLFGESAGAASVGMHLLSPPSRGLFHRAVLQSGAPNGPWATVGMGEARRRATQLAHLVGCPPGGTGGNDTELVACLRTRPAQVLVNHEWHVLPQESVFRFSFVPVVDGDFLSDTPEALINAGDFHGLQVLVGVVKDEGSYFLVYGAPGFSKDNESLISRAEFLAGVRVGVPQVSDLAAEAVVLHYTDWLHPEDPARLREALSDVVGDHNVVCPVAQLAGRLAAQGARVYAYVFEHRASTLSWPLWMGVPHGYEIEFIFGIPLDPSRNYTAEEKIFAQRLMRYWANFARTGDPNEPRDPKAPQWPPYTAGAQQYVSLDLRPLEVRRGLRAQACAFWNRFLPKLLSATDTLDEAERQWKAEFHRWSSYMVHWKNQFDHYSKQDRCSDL
Procedure: as §1

recombinant human ChAT = target: T3, recombinant human ChAT (Homo sapiens, UniProt P28329); test: Colorimetric ChAT assay with recombinant human ChAT protein; assay type: biochemical
T3 construct: His6 (N); made in house; host or cells: E. coli BL21 Rosetta2
T3 sequence (P28329 1-630 isoform P28329-3): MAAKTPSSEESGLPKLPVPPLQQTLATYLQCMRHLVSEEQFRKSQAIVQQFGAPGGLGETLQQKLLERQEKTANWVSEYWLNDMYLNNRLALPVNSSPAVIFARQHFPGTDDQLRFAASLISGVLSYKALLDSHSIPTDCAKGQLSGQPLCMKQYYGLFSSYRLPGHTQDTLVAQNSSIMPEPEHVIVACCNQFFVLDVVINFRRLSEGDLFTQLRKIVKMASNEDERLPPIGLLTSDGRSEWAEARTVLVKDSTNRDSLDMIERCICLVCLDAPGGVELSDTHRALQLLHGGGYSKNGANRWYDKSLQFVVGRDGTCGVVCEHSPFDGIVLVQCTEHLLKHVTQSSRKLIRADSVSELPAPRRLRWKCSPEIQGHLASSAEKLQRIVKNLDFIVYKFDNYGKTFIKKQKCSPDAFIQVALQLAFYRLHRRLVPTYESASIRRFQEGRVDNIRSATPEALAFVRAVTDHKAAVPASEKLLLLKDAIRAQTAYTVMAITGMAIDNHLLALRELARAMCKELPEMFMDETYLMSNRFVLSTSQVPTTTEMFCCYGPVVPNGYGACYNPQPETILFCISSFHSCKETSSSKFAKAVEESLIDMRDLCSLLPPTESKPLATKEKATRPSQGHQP
Procedure: ChAT activity was measured with a new colorimetric assay as described previously, using recombinant ChAT protein. Briefly, 20 μL/wells of 1.5 μg/ml of the recombinant ChAT was incubated with 20 μL/well of different concentrations of α-NETA for 30 minutes at room temperature in dilution buffer (10 mM Tris-HCl, pH 7.4, 150 mM NaCl, 1.0 mM EDTA, 0.05% (v/v) Triton X-100). […]
Then 50 μl of a cocktail-B [phosphate buffered saline, containing 0.93 U/ml choline oxidase (C5896, Sigma-Aldrich), 1/5000 U streptavidin-horseradish peroxidase, 6.3 mM phenol, and 3 mM 4-aminoantipyrine (A4382, Sigma-Aldrich)] was added to each sample including the standards. Absorbance was then monitored using a microplate spectrophotometer reader (Infinite M1000, Tecan) at 500 nm wavelength. ChAT activity (nmol/min/mg of recombinant protein) was calculated according to the following formula: ChAT activity [ChBL-ChS]/t/m, where ChBL is the measured number of mole of choline in control wells lacking the inhibitor and ChAT, ChS is the measured number of mole of choline in the sample wells, the t is the incubation time and m is the mass of ChAT protein added per sample well. […]

[1] = test system: purified human placental ChAT; design: method as in PMID 3361452; conditions: cited from earlier work

Row | Compound | Actual pIC50 / Observed pIC50 (ChAT) | also measured
1 | C[n+]1ccc(/C=C/c2cccc3ccccc23)cc1 [Compound 1] | 6.33 | 
2 | C[n+]1ccc(/C=C/c2cccc(Br)c2)cc1 [Compound 2] | 5.83 | 
3 | C[n+]1ccc(/C=C/c2cccc(Cl)c2)cc1 [Compound 3] | 5.64 | 
4 | C[n+]1ccc(/C=C/c2ccc(Br)cc2)cc1 [Compound 4] | 5.59 | 
5 | C[n+]1ccc(/C=C/c2ccc(Cl)c(Cl)c2)cc1 [Compound 5] | 5.48 | 
6 | C[n+]1ccc(/C=C/c2ccc(Cl)cc2)cc1 [Compound 6] | 5.16 | 
7 | C[n+]1ccc(/C=C/c2ccccc2)cc1 [Compound 7] | 4.83 | 
8 | Cc1ccc(/C=C/c2cc[n+](C)cc2)cc1 [Compound 8] | 4.70 | 
9 | C[n+]1ccc(/C=C/c2ccc(F)cc2)cc1 [Compound 9] | 4.68 | 
10 | C[n+]1ccc(/C=C/c2ccccc2Cl)cc1 [Compound 10] | 4.56 | 
11 | C[n+]1ccc(/C=C/c2cccc([N+](=O)[O-])c2)cc1 [Compound 11] | 3.83 | 
12 | C[n+]1ccc(/C=C/c2ccc([N+](=O)[O-])cc2)cc1 [Compound 12] | 3.70 | 
13 | Cc1c[n+](C)ccc1/C=C/c1cccc2ccccc12 [Compound 13] | 6.40 | 
14 | Cc1c[n+](C)ccc1/C=C/c1cccc(Cl)c1 [Compound 14] | 5.80 | 
15 | Cc1c[n+](C)ccc1/C=C/c1ccc(Cl)c(Cl)c1 [Compound 15] | 5.77 | 
16 | Cc1c[n+](C)ccc1/C=C/c1ccccc1 [Compound 16] | 5.30 | 
17 | Cc1c[n+](C)ccc1/C=C/c1ccccc1Cl [Compound 17] | 4.77 | 
18 | Cc1c[n+](C)ccc1/C=C/c1c[nH]c2ccccc12 [Compound 18] | 4.41 | 
19 | OCC[n+]1ccc(/C=C/c2cccc(Br)c2)cc1 [Compound 19] | 5.38 | 
20 | OCC[n+]1ccc(/C=C/c2cccc(Cl)c2)cc1 [Compound 20] | 5.62 | 
21 | C[n+]1ccc(/C=C/c2ccccc2)c2ccccc21 [Compound 21] | 5.46 | 
22 | C[n+]1ccc(/C=C/c2cccs2)c2ccccc21 [Compound 22] | 3.60 | 
23 | C[n+]1ccc(/C=C/c2cccnc2)c2ccccc21 [Compound 23] | 3.22 | 
24 | OCC[n+]1ccc(/C=C/c2cccc3ccccc23)c2ccccc21 [Compound 24] | 6.28 | 
25 | OCC[n+]1ccc(/C=C/c2ccccc2)c2ccccc21 [Compound 25] | 5.54 | 
26 | C[N+](C)(C)CCC(=O)c1cccc2ccccc12.[I-] [α-NETA, 2-(α-naphthoyl) ethyltrimethylammonium iodide] |  | inhibition at 3 µM (BuChE; at a concentration of 3 μM): 10%; selectivity for ChAT relative to BuChE (BuChE; based on IC50 ratios): ~ 378 fold; pIC50 (BuChE; pooled human plasma, 30 min preincubation): ~4.52 and 4.48; pIC50 (AChE; 30 min preincubation): ~4.52 and 4.47; inhibition at 10 µM (AChE; at a concentration of 10 μM): 10%; selectivity for ChAT compared to AChE (AChE; based on IC50 ratios): 388 fold and ~ 388 fold; higher potency as ChAT inhibitor in this system than reported (recombinant human ChAT; IC50 88 nM versus reported ~9 μM): ~ 100 folds; pIC50 (recombinant human ChAT; recombinant human ChAT, 30 min preincubation): ~7.06 and 7.06; Observed pIC50 (reported pIC50) [1]: 5.05; pIC50 ([1]; read-out: IC50 (reported, ChAT)): ~5.05
